Read-outs that look alike come from different tables or passages of the source.

One assay addresses T1, hADAM-19 (Homo sapiens, UniProt Q9H013).
T1 construct: made in house
T1 sequence (Q9H013 26-701 isoform Q9H013-2): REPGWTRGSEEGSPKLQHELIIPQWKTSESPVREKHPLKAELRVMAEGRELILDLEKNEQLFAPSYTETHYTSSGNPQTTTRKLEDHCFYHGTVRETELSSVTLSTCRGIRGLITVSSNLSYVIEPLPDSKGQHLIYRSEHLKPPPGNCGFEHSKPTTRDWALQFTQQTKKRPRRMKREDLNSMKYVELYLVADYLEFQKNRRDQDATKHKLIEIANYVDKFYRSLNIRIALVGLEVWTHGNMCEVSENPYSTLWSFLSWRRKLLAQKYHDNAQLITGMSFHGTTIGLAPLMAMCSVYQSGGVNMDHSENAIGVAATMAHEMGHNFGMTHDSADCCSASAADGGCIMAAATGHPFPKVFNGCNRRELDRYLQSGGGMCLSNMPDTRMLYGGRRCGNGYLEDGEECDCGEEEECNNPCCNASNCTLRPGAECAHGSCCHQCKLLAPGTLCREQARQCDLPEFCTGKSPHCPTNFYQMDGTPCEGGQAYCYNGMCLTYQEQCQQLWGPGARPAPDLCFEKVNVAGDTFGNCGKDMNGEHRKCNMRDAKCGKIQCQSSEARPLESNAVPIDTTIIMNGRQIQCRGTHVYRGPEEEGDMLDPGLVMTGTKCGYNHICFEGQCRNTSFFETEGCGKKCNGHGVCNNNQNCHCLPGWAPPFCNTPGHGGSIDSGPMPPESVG
In words: Inhibition of α2-M cleavage by hADAM-19 (SDS-PAGE, silver staining). The class given is biochemical. The method, then: 20 mM EDTA, 20 rmiM EGTA, 10 mM HgCl2, 1 miM TIMP-1,-2 (TIMP: hADAM-19 molar ratio was 100:1) and three commercial (CALBIOCHEM) small molecule human MMP inhibitors were used to inhibit α2-M cleavage by hADAM-19. […] Briefly, different concentrations of those inhibitors were mixed with 7.5 μl of hADAM-19 (50 μg/ml) in 22.9 μl of 1× HEPES buffer (50 mM HEPES, pH 7.5, 0.2 M NaCl, 10 mM CaCl2, 25 μM ZnCl, and 0.05%Brij-35) and incubated at room temperature (24° C.) for 2-hr, then 7.1 μl of substrate α2-M (0.2 unit/ml) were added and incubated at 37° C. for 20-hr. The reactions were stopped by adding 4× sample bufer and boiled immediately for 5 minutes. After SDS-PAGE, the protein bands were visualized by silver staining.

The test system of assay [1] is viruses containing the K103N mutation. To be noted: cited from earlier work.
The subject of a further assay is HIV. To be noted: cited from earlier work.
The mark [2] stands for this setting: summary statement, concentration not given.

On to `c1cnc2c(c1)ccc1cccnc12` [1,10-phenathroline], for which the “blockage of hADAM-19 proteolytic activity against α2-M” value (shortened to “blockage … against α2-M”) at hADAM-19 (setting [2]) was “blocked completely”.
As for `CC(C)c1nc(COC(N)=O)n(Cc2ccncc2)c1Sc1cc(Cl)cc(Cl)c1` [CAPRAVIRINE], in assay [1], the “activity against K103N mutants” value was “activity against viruses containing the K103N mutation”.
On to `Nc1nc(=O)n([C@@H]2CS[C@H](CO)O2)cc1F` [COVIRACIL, emtricitabine], for which, in the assay with HIV (greater activity than lamivudine (3TC)), the “activity in vitro relative to lamivudine (3TC)” value is on record as 3- to 10 fold.
On to `O=C(O)CN(CCN(CC(=O)O)CC(=O)O)CC(=O)O` [EDTA], for which, on hADAM-19, the “blockage of hADAM-19 digestion of α2-M” value was “completely blocked” and the “blockage … against α2-M” value was “blocked completely”.
Consider `O=C(O)CN(CCOCCOCCN(CC(=O)O)CC(=O)O)CC(=O)O` [EGTA], for which the “blockage of hADAM-19 digestion of α2-M” value on hADAM-19 (20 mM inhibitor) is recorded as “completely blocked”. Also, the “blockage … against α2-M” value on hADAM-19 (setting [2]) is recorded as “blocked completely”.
For the molecule `CC[C@H]1C(=O)Nc2ccc(F)cc2N1C(=O)OC(C)C` [GW-420867X], the “activity against K103N mutants” value in assay [1] is recorded as “active against K103N mutants”. Besides, the “activity relative to HBY097” value in the assay with HIV (greater activity than HBY097) is on record as 25 fold.
For the molecule `[Cl][Hg][Cl]` [HgCl2], the “blockage of hADAM-19 digestion of α2-M” value at hADAM-19 (10 mM inhibitor) is “completely blocked”. Besides, the “blockage … against α2-M” value at hADAM-19 (setting [2]) is reported as “blocked completely”.
On to `COc1ccc(S(=O)(=O)N(CC(=O)NO)CC(C)C)cc1` [MMP-3 inhibitor II, N-Isobutyl-N-(4-methoxyphenylsulfonyl)-glycylhydroxamic acid], for which the “blockage of hADAM-19 digestion of α2-M” value on hADAM-19 (100 µM inhibitor) and on hADAM-19 (1 mM inhibitor) was “partially blocked” each time.
`C[C@H](Sc1nc(N)cc(Cl)n1)c1cc2ccoc2cn1` [PNU-142721]: the “activity against K103N mutants” value in assay [1] was “active against K103N mutants”. Besides, the “activity relative to delavirdine” value with HIV (greater activity than its predecessor delavirdine) is given as 20- to 50 fold.
Turning to “TIMP-1: tissue inhibitor of metalloproteinases”, the “blockage of hADAM-19 digestion of α2-M” value with hADAM-19 (TIMP:hADAM-19 molar ratio of 100:1) was “Neither TIMP-1 or TIMP-2 at TIMP:hADAM-1 9 molar ratio of 100:1 were able to block”. Moreover, the “blockage … against α2-M” value in the assay with hADAM-19 (setting [2]) is recorded as “not blocked”.

Values taken from patent publication US20020173640A1, “ADAM polynucleotides, polypeptides, and antibodies” (Human Genome Sciences, Inc., priority 1999, published 2002).
